Patent US5892063A (Hauser, Inc., priority 1997, dated 1999)
Like-named read-outs stand apart in the source and are kept apart here.

Key:
[1] = tested on: OVCAR-3; assay: SRB growth screen, ovarian cancer OVCAR-3; settings: Homo sapiens, OVCAR-3, 48 h; for CC50: read-out: Log10 LC50 (converted); for IC (TGI): read-out: Log10 TGI
[2] = tested on: BT-549; assay: SRB growth screen, breast cancer BT-549; settings: Homo sapiens, BT-549, 48 h; for GI50: read-out: Log10 GI50 (converted); for CC50: read-out: Log10 LC50 (converted); for IC (TGI): read-out: Log10 TGI
[3] = tested on: HL-60(TB); assay: SRB growth screen, leukemia HL-60(TB); settings: Homo sapiens, HL-60, 48 h; for CC50: read-out: Log10 LC50 (converted); for IC (TGI): read-out: Log10 TGI
[4] = tested on: SF-539; assay: SRB growth screen, CNS cancer SF-539; settings: Homo sapiens, SF-539, 48 h; for CC50: read-out: Log10 LC50 (converted)
[5] = tested on: K-562; assay: SRB growth screen, leukemia K-562; settings: Homo sapiens, K562, 48 h; for CC50: read-out: Log10 LC50 (converted); for IC (TGI): read-out: Log10 TGI
[6] = tested on: IGROV1; assay: SRB growth screen, ovarian cancer IGROV1; settings: Homo sapiens, IGROV-1, 48 h; for CC50: read-out: Log10 LC50 (converted)
[7] = SRB growth screen, whole cell line panel; type: cell-based; settings: for CC50: Homo sapiens, read-out: Log10 LC50, Mean (converted); for GI50: read-out: Log10 GI50, Mean (converted); for IC (TGI): read-out: Log10 TGI, Mean (converted)
Protocol: The screening assay is performed on 96-well microtitre plates. […] Duplicate wells are prepared for all concentrations; "time-zero" and "nodrug" controls are also provided for each test. […] One hundred microliters of SRB solution (0.4% w/v in 1% acetic acid) is added to each microtitre well and incubated for 10 minutes at room temperature.
The response parameters GI50 and LC50 are interpolated values representing the concentrations at which the percentage growth (PG) is +50 and -50 respectively:
GI50 is the concentration for which the PG=+50.
TGI is the concentration for which PG=0.
LC50 is the concentration for which the PG=-50. […] This is interpreted as cytotoxicity.
The data represented in Table I is graphically represented in FIGS. 1a and 1b through FIGS. 9a and 9b. […] The following is an example of how the information in Table I and in the Figures is interpreted.

[8] = tested on: MDA-N; assay: SRB growth screen, breast cancer MDA-N; settings: Homo sapiens, 48 h; for GI50: read-out: Log10 GI50 (converted)
[9] = tested on: RPMI-8226; assay: SRB growth screen, leukemia RPMI-8226; settings: Homo sapiens, RPMI-8226, 48 h; for CC50: read-out: Log10 LC50 (converted)
[10] = tested on: HT29; assay: SRB growth screen, colon cancer HT29; settings: Homo sapiens, HT-29, 48 h; for GI50: read-out: Log10 GI50 (converted); for CC50: read-out: Log10 LC50 (converted)
[11] = tested on: MCF7; assay: SRB growth screen, breast cancer MCF7; settings: Homo sapiens, MCF7, 48 h; for CC50: read-out: Log10 LC50 (converted)
[12] = tested on: SNB-19; assay: SRB growth screen, CNS cancer SNB-19; settings: Homo sapiens, SNB-19, 48 h; for CC50: read-out: Log10 LC50 (converted); for IC (TGI): read-out: Log10 TGI
[13] = tested on: CCRF-CEM; assay: SRB growth screen, leukemia CCRF-CEM; settings: Homo sapiens
[14] = tested on: SW-620; assay: SRB growth screen, colon cancer SW-620; settings: Homo sapiens, SW-620, 48 h; for CC50: read-out: Log10 LC50 (converted); for IC (TGI): read-out: Log10 TGI
[15] = tested on: SK-MEL-2; assay: SRB growth screen, melanoma SK-MEL-2; settings: Homo sapiens, SK-MEL-2, 48 h; for CC50: read-out: Log10 LC50 (converted)
[16] = tested on: OVCAR-5; assay: SRB growth screen, ovarian cancer OVCAR-5; settings: Homo sapiens, OVCAR-5, 48 h; for CC50: read-out: Log10 LC50 (converted); for IC (TGI): read-out: Log10 TGI
[17] = tested on: M14; assay: SRB growth screen, melanoma M14; settings: Homo sapiens, M14, 48 h; for CC50: read-out: Log10 LC50 (converted)
[18] = tested on: MALME-3M; assay: SRB growth screen, melanoma MALME-3M; settings: Homo sapiens, 48 h; for CC50: read-out: Log10 LC50 (converted); for IC (TGI): read-out: Log10 TGI
[19] = tested on: MDA-MB-435; assay: SRB growth screen, breast cancer MDA-MB-435; type: cell-based
[20] = tested on: HOP-62; settings: Homo sapiens, HOP-62, 48 h; for CC50: read-out: Log10 LC50 (converted)
[21] = tested on: SR; assay: SRB growth screen, leukemia SR; settings: Homo sapiens, 48 h; for CC50: read-out: Log10 LC50 (converted)
[22] = tested on: MCF7/ADR-RES; assay: SRB growth screen, breast cancer MCF7/ADR-RES; settings: Homo sapiens, 48 h; for CC50: read-out: Log10 LC50 (converted); for IC (TGI): read-out: Log10 TGI
[23] = tested on: tumor models; settings: cited from earlier work
[24] = read-out: Log10 GI50 (converted)
[25] = 48 h, read-out: Log10 LC50 (converted)
[26] = read-out: concentration considered cytostasis (percentage growth 0)
[27] = read-out: concentration necessary to achieve primary growth inhibition (PG +50)
[28] = read-out: cytotoxicity concentration (percentage growth -50)

CC(=O)O[C@H]1C(=O)[C@@]2(C)[C@H]([C@H](OC(=O)c3ccccc3)[C@]3(O)C[C@H](OC(=O)[C@H](O)[C@@H](NC(=O)C4(C)OC4C)c4ccccc4)C(C)=C1C3(C)C)[C@]1(OC(C)=O)CO[C@@H]1C[C@@H]2O (stereo partly shown) [Ceph-epoxide, cephalomannine epoxide]
GI50 [1, 24]: < 0.01 µM | CC50 [1]: > 100 µM | IC (TGI) [1]: 0.0182 µM | GI50 [2]: 0.01 µM | CC50 [2]: < 100 µM | IC (TGI) [2]: 0.0977 µM | GI50 [3, 24]: < 0.01 µM | CC50 [3]: > 100 µM | IC (TGI) [3]: < 0.01 µM | GI50 [4, 24]: < 0.01 µM | CC50 [4]: 0.0407 µM | IC (TGI) ([4]; read-out: Log10 TGI): < 0.01 µM | GI50 [5, 24]: < 0.01 µM | CC50 [5]: > 100 µM | IC (TGI) [5]: > 100 µM | GI50 [6, 24]: < 0.01 µM | CC50 [6]: > 100 µM | CC50 [7]: 64.6 µM | GI50 ([7]; mean over cell lines): 28.8 nM | IC (TGI) ([7]; mean over cell lines): 5.75 µM | GI50 [8]: < 10 nM | CC50 ([8]; read-out: Log10 LC50 (converted)): < 0.01 µM | IC (TGI) ([8]; read-out: Log10 TGI): < 0.01 µM | CC50 [9]: > 100 µM | GI50 [10]: < 10 nM | CC50 [10]: > 100 µM | IC (TGI) ([10]; read-out: Log10 TGI): 0.115 µM | GI50 [11, 24]: < 0.01 µM | CC50 [11]: > 100 µM | IC (TGI) ([11]; read-out: Log10 TGI): > 100 µM | GI50 [12, 24]: 0.0257 µM | CC50 [12]: > 100 µM | IC (TGI) [12]: > 100 µM | GI50 ([13]; 48 h, read-out: Log10 GI50 (converted)): < 0.01 µM | CC50 [13, 25]: > 100 µM | IC (TGI) ([13]; 48 h, read-out: Log10 TGI): 2.51 µM | IC (TGI) [13, 26]: 2.51 µM | IC50 [13, 27]: < 10 nM | CC50 [13, 28]: > 100 µM | CC50 [14]: > 100 µM | IC (TGI) [14]: > 100 µM | GI50 [15, 24]: < 0.01 µM | CC50 [15]: > 100 µM | GI50 [16, 24]: 0.0275 µM | CC50 [16]: > 100 µM | IC (TGI) [16]: 4.79 µM | GI50 [17, 24]: < 0.01 µM | CC50 [17]: > 100 µM | CC50 [18]: > 100 µM | IC (TGI) [18]: > 100 µM | GI50 ([19]; Homo sapiens, MDA-MB-435, 48 h; read-out: Log10 GI50 (converted)): < 10 nM | IC (TGI) ([19]; Homo sapiens, MDA-MB-435, 48 h; read-out: Log10 TGI): < 0.01 µM | GI50 [20, 24]: 0.0245 µM | CC50 [20]: > 100 µM | GI50 [21, 24]: < 0.01 µM | CC50 [21]: > 100 µM | GI50 [22, 24]: 13.8 µM | CC50 [22]: > 100 µM | IC (TGI) [22]: 61.7 µM

CC(=O)O[C@H]1C(=O)[C@@]2(C)[C@H]([C@H](OC(=O)c3ccccc3)[C@]3(O)C[C@H](OC(=O)[C@H](O)[C@@H](NC(=O)c4ccccc4)c4ccccc4)C(C)=C1C3(C)C)[C@]1(OC(C)=O)CO[C@@H]1C[C@@H]2O [Paclitaxel, paclitaxel, reference compound]
CC50 [1]: > 100 µM | IC (TGI) [1]: 28.2 µM | activity in model tumor systems [23]: excellent activity | GI50 [2]: 0.00049 µM | CC50 [2]: > 100 µM | IC (TGI) [2]: 0.479 µM | CC50 [3]: > 100 µM | IC (TGI) [3]: > 29.5 µM | CC50 [4]: > 100 µM | CC50 [5]: > 100 µM | IC (TGI) [5]: > 100 µM | CC50 [6]: > 100 µM | IC (TGI) ([6]; read-out: Log10 TGI): 64.6 µM | CC50 ([7]; mean over cell lines): 87.1 µM | GI50 ([7]; mean over cell lines): 0.0708 nM | IC (TGI) ([7]; mean over cell lines): 28.8 µM | GI50 [8]: < 0.0001 nM | GI50 [9, 24]: < 0.1 pM | CC50 [9]: > 100 µM | IC (TGI) ([9]; read-out: Log10 TGI): > 100 µM | GI50 [10]: < 0.0001 nM | CC50 [10]: 40.7 µM | CC50 [11]: > 100 µM | CC50 [12]: > 100 µM | IC (TGI) [12]: > 100 µM | CC50 [13, 25]: > 100 µM | IC (TGI) ([13]; 48 h, read-out: Log10 TGI): > 100 µM | IC50 ([13]; read-out: concentration at which primary growth inhibition occurs (PG +50)): 0.00245 nM | IC (TGI) [13, 26]: > 100 µM | IC50 [13, 27]: < 10 nM | CC50 [13, 28]: > 100 µM | CC50 [14]: > 100 µM | IC (TGI) [14]: > 100 µM | CC50 [15]: > 100 µM | CC50 [16]: > 100 µM | IC (TGI) [16]: 12 µM | CC50 [17]: 74.1 µM | IC (TGI) ([17]; read-out: Log10 TGI): 24 µM | CC50 [18]: 77.6 µM | IC (TGI) [18]: 34.7 µM | GI50 ([19]; Homo sapiens, MDA-MB-435, 48 h, read-out: Log10 GI50 (converted)): < 0.0001 nM | CC50 [20]: 79.4 µM | IC (TGI) ([20]; read-out: Log10 TGI): 15.8 µM | CC50 [21]: > 100 µM | IC (TGI) ([21]; read-out: Log10 TGI): > 100 µM | CC50 [22]: > 100 µM | IC (TGI) [22]: > 100 µM
